Source: patent publication US20130236527A1, “LICORICE LOLLIPOP THAT INHIBITS DENTAL CARIES FORMATION” (INTELLIHERB, LLC, priority 2008, published 2013)

Assays:
S. mutans = test: anti-S. mutans bioactivity examination of extract batches; type: cell-based, Streptococcus mutans
From the text: In addition to chemical analysis, all batches, or statistically relevant samples of continuous production processes (e.g., 1/3600 candies; or 1/5000 candies; or 1/10,000 candies or the like) or statistically relevant samples of candy production batches (e.g., 1/10 batches; or 1/20 batches; or 1/50 batches), are examined for bioactivity. While the pure compound of glycyrrhizol A has anti-S. mutans activity at 1 microgram per ml, the mixed compound usually has anti-S. mutans activity at 10-30 microgram per ml.

bacterial adherence = test: inhibition of bacterial adherence / dental caries formation

| Compound | anti-S. mutans activity at (concentration) (S. mutans) [microgram per ml] | inhibition of dental caries formation by inhibiting bacterial adherence (bacterial adherence) |
| --- | --- | --- |
| COc1c(CC=C(C)C)c(O)cc2c1-c1oc3cc(O)c(CC=C(C)C)cc3c1CO2 [Glycyrrhizol A] | 1 |  |
| CC1(C)[C@@H](O[C@H]2O[C@H](C(=O)O)[C@@H](O)[C@H](O)[C@H]2O[C@@H]2O[C@H](C(=O)O)[C@@H](O)[C@H](O)[C@H]2O)CC[C@]2(C)[C@H]3C(=O)C=C4[C@@H]5C[C@@](C)(C(=O)O)CC[C@]5(C)CC[C@@]4(C)[C@]3(C)CC[C@@H]12 [glycyrrhizin] |  | can inhibit formation of dental caries by inhibiting bacterial adherence |
